Reference: ChEMBL document CHEMBL1124325, “Interactions of thiol-containing androgens with human placental aromatase” (J Med Chem, 1989)

Columns and labels:
Aromatase [1] = target: T1, Aromatase (Homo sapiens, UniProt P11511); assay: Catalytic constant (Kcat) for reversible enzyme-ligand complex formation with human placental aromatase (PL2)
T1 sequence (P11511 whole entry): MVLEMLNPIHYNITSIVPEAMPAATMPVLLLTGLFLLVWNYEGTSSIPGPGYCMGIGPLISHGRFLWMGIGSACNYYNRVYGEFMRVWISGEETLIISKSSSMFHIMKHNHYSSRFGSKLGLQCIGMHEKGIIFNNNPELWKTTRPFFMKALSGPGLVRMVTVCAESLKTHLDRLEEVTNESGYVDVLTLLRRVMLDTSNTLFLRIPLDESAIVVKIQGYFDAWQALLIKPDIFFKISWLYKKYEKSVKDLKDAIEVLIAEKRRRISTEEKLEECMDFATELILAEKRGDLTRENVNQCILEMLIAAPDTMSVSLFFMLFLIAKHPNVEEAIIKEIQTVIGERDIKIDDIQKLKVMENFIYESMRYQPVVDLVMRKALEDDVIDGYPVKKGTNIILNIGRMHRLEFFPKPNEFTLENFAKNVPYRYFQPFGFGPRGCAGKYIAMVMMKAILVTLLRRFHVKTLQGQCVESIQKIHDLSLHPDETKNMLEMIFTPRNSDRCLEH

Aromatase [2] = target: T1, Aromatase; assay: Binding affinity constant for formation of reversible enzyme-ligand complex with human placental aromatase (PL1); details: read-out: Ks
Aromatase [3] = target: T1, Aromatase; assay: Dithiothreitol ([…]) reactivation of human placental aromatase following 1.0 uM inactivation for 10 minutes; details: read-out: Activity remaning
Aromatase [4] = target: T1, Aromatase; assay: Binding affinity(KI) for formation of reversible enzyme-ligand complex with human placental aromatase (PL2)
Aromatase [5] = target: T1, Aromatase; assay: Maximum absorbance for formation of reversible-enzyme-ligand complexes with human placental aromatase (PL1)
Aromatase [6] = target: T1, Aromatase; assay: Binding affinity for formation of reversible enzyme-ligand complexes with human placental aromatase (PL2)
Aromatase [7] = target: T1, Aromatase; assay: Dithiothreitol ([…]) reactivation of human placental aromatase following 1.0 uM inactivation for 5 minutes; details: read-out: Activity remaning

SMILES	k cat (Aromatase [1])	Kd (Aromatase [2])	activity at 1 µM (Aromatase [3])	Ki (Aromatase [4])	Activity (Aromatase [5])	Ki (Aromatase [6])	activity at 1 µM (Aromatase [7])
C[C@]12C[C@@H](S)C(=O)C=C1CCC1C2CC[C@]2(C)C(=O)CCC12 (stereo not given in full)	0.002	602 nM	75%	3100 nM	0.169 Amax nM-1	–	–
C[C@]12CCC3C(CCC4=CC(=O)CC[C@@]43CS)C1CCC2=O (stereo not given in full)	0.0025	–	–	–	0.179 Amax nM-1	47 nM	60%
C[C@]12CCC(=O)C(O)=C1CC[C@@H]1[C@@H]2CC[C@]2(C)C(=O)CC[C@@H]12 [FORMESTANE]	0.008 *10e-3	324 nM	–	542 nM	0.162 Amax nM-1	–	43%
C[C@]12CCC3C(CCC4=CC(=O)CC[C@@]43S)C1CCC2=O.OC(CS)C(O)CS (stereo not given in full)	–	–	–	–	–	–	48%
C[C@]12CC[C@H]3[C@@H](CCC4=CC(=O)CC[C@@]43C)[C@@H]1CC[C@@H]2O [TESTOSTERONE]	–	–	–	–	0.166 Amax nM-1	–	–
C[C@]12CCC(=O)C=C1CC[C@@H]1[C@@H]2CC[C@]2(C)C(=O)CC[C@@H]12 [ANDROSTENEDIONE]	–	105 nM	–	–	0.177 Amax nM-1	–	–
CC12CCC3C(CC=C4CC(=O)CCC43CO)C1CCC2=O (stereo not given)	–	368 nM	–	–	0.125 Amax nM-1	–	–
C#CC[C@]12CCC(=O)C=C1CC[C@@H]1[C@@H]2CC[C@]2(C)C(=O)CC[C@@H]12 [PLOMESTANE]	0.0007	213 nM	65%	6.2 nM	0.191 Amax nM-1	–	–
C[C@]12CCC3C(CCC4=CC(=O)CC[C@@]43CS)C1CCC2=O.OC(CS)C(O)CS (stereo not given in full)	–	–	–	–	–	–	59%
C[C@]12CCC(=O)C(O)=C1CCC1C2CC[C@]2(C)C(=O)CCC12.OC(CS)C(O)CS (stereo not given in full)	–	–	–	–	–	–	41%
C[C@]12C[C@@H](S)C(=O)C=C1CCC1C2CC[C@]2(C)C(=O)CCC12.OC(CS)C(O)CS (stereo not given in full)	–	–	74%	–	–	–	–
C#CC[C@]12CCC(=O)C=C1CCC1C2CC[C@]2(C)C(=O)CCC12.OC(CS)C(O)CS (stereo not given in full)	–	–	63%	–	–	–	–
C[C@]12CCC3C(CCC4=CC(=O)CC[C@@]43S)C1CC[C@@H]2O (stereo not given in full)	0.004	785 nM	–	100 nM	0.167 Amax nM-1	–	–
C[C@]12CCC3C(CCC4=CC(=O)CC[C@@]43S)C1CCC2=O (stereo not given in full)	0.0043	144 nM	–	28 nM	0.187 Amax nM-1	–	50%
OC(CS)C(O)CS (stereo not drawn) [DL-DITHIOTHREITOL]	–	–	84%	–	–	–	97%
